{"source": "patent US9522163B2", "about": "“Methods of treating hepatitis” (priority 2002, dated 2016)", "key": {"HO-1": {"tested_on": "HO-1", "experiment": "Liver HO-1 expression (immunoblot)", "format": "in vivo, mice", "protocol": "(§1) Western blot analysis was performed on primary hepatocytes in culture or from liver homogenates with antibodies to iNOS (Transduction Laboratories, Lexington, Ky.; 1:1000), HO-1 (Calbiochem; 1:2000), or β-actin (Sigma Chemical; 1:5000). Thirty μg protein in cell culture experiments or 100 μg protein from liver homogenates was loaded per well for SDS-PAGE.\nTo assess the role of iNOS on TNF-α/D-gal-induced HO-1 expression in the liver (data presented in FIG. 16), mice were administered L-NIL (5 mg/kg, i.p.) 2 hr prior to pre-treatment with CO (250 ppm) and every 2 hr thereafter. Control mice received L-NIL and remained in room air."}, "[1]": {"tested_on": "human primary hepatocytes", "experiment": "TNF-α/ActD-induced cell death in human hepatocytes", "format": "cell-based", "details": "exposure to CO", "protocol": "Cells were treated with TNF-α (10 ng/ml) and actinomycin-D (Act-D; 200 ng/ml, Sigma Chemical Co. St. Louis, Mo.) to induce cell death.\nTo generate the data presented in FIG. 3, human primary hepatocytes obtained from a donor liver resection were treated with CO and TNF-α/ActD as described above."}, "[2]": {"tested_on": "TNF-α/D-gal-induced liver injury", "protocol": "Male C57BL/6J ([…], Bar Harbor, Me.), 8-12-wk-old inos^−/− mice and wild type littermates (bred/maintained at the University of Pittsburgh) were used for in vivo experiments.\n10 mg/kg subcutaneously (s.c.), Alexis Biochem., San Diego, Calif.) or cobalt protoporphyrin (CoPP, 5 mg/kg, intraperitoneally (i.p.), Frontier Scientific, Logan, Utah). […] Where indicated, acetaminophen (Sigma Chem. Co.; St Louis, Mo.) was administered (500 mg/kg, i.p.).\nA CO analyzer (Interscan, Chatsworth, Calif.) was used to measure CO levels continuously in the chamber. CO concentrations were maintained at 250 ppm at all times. Mice were placed in the exposure chamber as required.\nWhether HO-1 is protective against acute hepatic failure was investigated. Cobalt protoporphyrin (5 mg/kg, i.p.) was administered to male C57BL/6J mice. Twenty-four hours later, TNF-α/D-gal (0.3 μg/8 mg/mouse, i.p., respectively) was administered to the mice. Serum alanine aminotransferase (ALT) levels in the mice were measured 8 hours after administration of TNF-α/D-gal.\nAfter receiving TNF-α/D-gal, mice were returned to the CO exposure chamber and their serum was analyzed for ALT levels 6-8 hr later.\nTo generate the data presented in FIGS. 11A-11H, liver samples from mice treated with TNF-α/D-gal in the presence and absence of CO (250 ppm) for 8 hr were sectioned and stained for hematoxylin & eosin (H&E), activated caspase 3 (as indicated by an increase in red intensity), and for TUNEL positive cells (as demarcated by the increased green cellular staining; a marker of cell death). Nuclei stained blue.\nL-NIL was administered 2 hr prior to CO. CO-treated animals were then pre-treated (250 ppm) for 1 hr prior to TNF-α/D-gal.\nVP was selectively designed to deliver NO directly to the liver. One hour after the initial VP dose, the animals were exposed to CO for 1 hr prior to administration of TNF-α/D-gal (see above). Serum ALT levels were determined 6-8 hr later.\nThese mice and inos^−/− mice were then administered CoPP. L-NIL was maintained in the water throughout the experiment. Control and inos^−/− mice received normal drinking water. Twenty-four hr after administration of CoPP, TNF-α/D-gal was administered and serum ALT determined 6-8 hr later."}, "[3]": {"tested_on": "acetaminophen-induced liver injury", "experiment": "Acetaminophen (APAP)-induced hepatitis model", "format": "in vivo, mice", "protocol": "The animals were exposed to CO at a concentration of 250 ppm. […] Mice were placed in the exposure chamber as required.\nTo generate the data in FIG. 21, Male C57BL/6J mice were exposed to CO (250 ppm) either 1 hr prior or 4 hr post administration of APAP (500 mg/kg, i.p.). The mice were then maintained in CO for the duration of the experiment. Serum ALT levels were determined 20 hr after APAP administration. Control mice received APAP and were maintained in air. This protocol was designed to allow hepatitis to develop for four hours before administering CO."}, "iNOS": {"tested_on": "iNOS", "experiment": "Liver iNOS expression (immunoblot, immunostaining)", "format": "in vivo, mice", "protocol": "as §1\nFor histology and immunohistochemistry, livers were fixed in 2% paraformaldehyde and then snap frozen in liquid nitrogen. Livers were then sectioned (7 microns thick) and stained with hematoxylin and eosin (H&E). Liver sections were also stained for TUNEL and activated caspase-3 using kits according to the manufacturer's instructions (Promega). Sections for iNOS immunocytochemistry were blocked with 5% goat serum containing 0.2% bovine serum albumin. Thereafter, sections were incubated for 1 hour at room temperature with anti-iNOS antibody (Transduction Laboratories; 1:300), then washed and probed with a secondary antibody conjugated to Alexa-488 (Molecular Probes, Eugene, Oreg.). Nuclei were stained with Hoechst dye. Images were acquired using an Olympus Provus microscope. Hepatocytes in culture were plated on gelatinized coverslips, stimulated as indicated, and then fixed in 2% paraformaldehyde containing 0.1% Triton X-100. […]"}, "[4]": {"tested_on": "hemorrhagic shock liver injury", "experiment": "Murine model of hemorrhagic shock, liver injury", "format": "in vivo", "details": "inhaled CO during resuscitation after 2.5 hour shock phase; at 24 hr"}, "[5]": {"details": "CO 250 ppm for 8 hr, TNF-α/D-gal"}}}
{"molecule": "[C-]#[O+]", "note": "[CO, carbon monoxide]", "values": [{"measurement": "Liver HO-1 expression when iNOS was inhibited", "setting": "HO-1; CO 250 ppm with L-NIL 5 mg/kg i.p. every 2 hr", "result": "unable to induce expression"}, {"measurement": "Liver HO-1 expression", "setting": "HO-1; CO 250 ppm, presence and absence of TNF-α/D-gal", "result": "significant increase"}, {"measurement": "TNF-α induced apoptosis", "setting": "[1]", "result": "inhibited TNF-α induced apoptosis"}, {"measurement": "TNF-α/D-gal-induced liver damage by H&E staining", "setting": "[2]; CO 250 ppm for 8 hr", "result": "markedly reduced"}, {"measurement": "Staining of activated caspase-3 in liver", "setting": "[2]; [5]", "result": "less staining"}, {"measurement": "TUNEL positive cells in liver", "setting": "[2]; [5]", "result": "fewer TUNEL positive cells"}, {"measurement": "Serum ALT lower than in air-exposed mice", "setting": "[2]; CO 250 ppm, 1 hr pre-treatment and continued, ALT 6-8 hr after TNF-α/D-gal", "result": 74, "unit": "%"}, {"measurement": "Protection against liver damage (serum ALT, histopathology) in absence of iNOS function/expression", "setting": "[2]; CO 250 ppm, inos−/− mice and wild type mice treated with L-NIL 5 mg/kg i.p. every two hours", "result": "unable to protect against liver damage"}, {"measurement": "Protection with CO pre-treatment prior to APAP compared with post-treatment", "setting": "[3]; CO 250 ppm 1 hr prior to APAP", "result": "protection was similar"}, {"measurement": "Serum ALT", "setting": "[3]; CO 250 ppm from 4 hr post APAP 500 mg/kg i.p., 20 hr after APAP, controls 622±44", "result": "175±137"}, {"measurement": "Reduction in liver injury", "setting": "[3]; CO 4 hours after APAP 500 mg/kg i.p.", "result": 62, "unit": "%"}, {"measurement": "Liver iNOS expression", "setting": "iNOS; CO 250 ppm 1 hr prior to TNF-α/D-gal, livers six hours later", "result": "markedly increased"}, {"measurement": "Liver iNOS expression, CO without TNF-α/D-gal", "setting": "iNOS; immunostaining", "result": "modest increase"}, {"measurement": "Reduction in serum ALT", "setting": "[4]", "result": "> 65", "unit": "%"}]}
